From ChEMBL document CHEMBL5291721, “A preclinical secondary pharmacology resource illuminates target-adverse drug reaction associations of marketed drugs” (Nat Commun, 2023)

Columns and labels:
[1] = target: T1, Adenosine receptor A1 (Homo sapiens, UniProt P30542)
T1 sequence (P30542 whole entry): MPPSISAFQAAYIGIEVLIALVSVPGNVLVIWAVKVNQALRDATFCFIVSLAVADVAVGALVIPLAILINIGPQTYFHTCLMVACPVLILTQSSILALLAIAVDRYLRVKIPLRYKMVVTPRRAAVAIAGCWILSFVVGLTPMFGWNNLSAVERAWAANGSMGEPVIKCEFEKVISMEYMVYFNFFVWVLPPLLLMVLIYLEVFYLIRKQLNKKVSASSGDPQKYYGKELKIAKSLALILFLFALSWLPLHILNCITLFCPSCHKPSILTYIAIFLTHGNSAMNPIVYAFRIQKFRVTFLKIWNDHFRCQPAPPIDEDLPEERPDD

[2] = target: Neuronal acetylcholine receptor subunit alpha-4 (Homo sapiens, UniProt P43681)
Sequence of Neuronal acetylcholine receptor subunit alpha-4 (P43681 whole entry): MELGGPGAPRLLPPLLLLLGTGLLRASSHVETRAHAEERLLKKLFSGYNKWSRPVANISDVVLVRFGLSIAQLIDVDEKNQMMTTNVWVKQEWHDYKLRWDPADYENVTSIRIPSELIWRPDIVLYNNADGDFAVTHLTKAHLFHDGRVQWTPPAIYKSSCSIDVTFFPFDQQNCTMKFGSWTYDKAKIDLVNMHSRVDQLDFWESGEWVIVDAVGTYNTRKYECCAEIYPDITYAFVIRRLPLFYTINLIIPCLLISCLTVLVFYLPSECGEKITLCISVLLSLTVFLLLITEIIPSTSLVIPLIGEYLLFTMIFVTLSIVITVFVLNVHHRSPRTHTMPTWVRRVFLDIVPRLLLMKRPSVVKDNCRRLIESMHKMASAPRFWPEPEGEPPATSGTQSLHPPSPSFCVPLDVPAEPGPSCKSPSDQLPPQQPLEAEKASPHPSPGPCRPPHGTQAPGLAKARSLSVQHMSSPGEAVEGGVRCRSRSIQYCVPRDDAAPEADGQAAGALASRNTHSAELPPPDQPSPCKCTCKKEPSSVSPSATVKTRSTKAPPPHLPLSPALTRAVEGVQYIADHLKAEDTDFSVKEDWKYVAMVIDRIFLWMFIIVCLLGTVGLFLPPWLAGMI

[3] = target: T2, Alpha-2C adrenergic receptor (Homo sapiens, UniProt P18825); assay type: functional
T2 sequence (P18825 whole entry): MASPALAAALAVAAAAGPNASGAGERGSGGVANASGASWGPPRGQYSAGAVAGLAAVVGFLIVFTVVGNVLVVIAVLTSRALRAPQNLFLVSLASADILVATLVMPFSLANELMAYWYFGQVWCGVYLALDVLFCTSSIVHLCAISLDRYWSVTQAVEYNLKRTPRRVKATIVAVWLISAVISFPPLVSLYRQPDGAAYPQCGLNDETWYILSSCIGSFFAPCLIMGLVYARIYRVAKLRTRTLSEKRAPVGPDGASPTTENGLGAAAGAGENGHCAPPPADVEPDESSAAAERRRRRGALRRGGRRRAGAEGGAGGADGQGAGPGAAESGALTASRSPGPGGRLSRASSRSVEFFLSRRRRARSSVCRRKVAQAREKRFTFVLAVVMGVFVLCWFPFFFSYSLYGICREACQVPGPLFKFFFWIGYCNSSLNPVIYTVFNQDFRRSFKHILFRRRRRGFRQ

[4] = target: Vasopressin V1a receptor (Homo sapiens, UniProt P37288)
Sequence of Vasopressin V1a receptor (P37288 whole entry): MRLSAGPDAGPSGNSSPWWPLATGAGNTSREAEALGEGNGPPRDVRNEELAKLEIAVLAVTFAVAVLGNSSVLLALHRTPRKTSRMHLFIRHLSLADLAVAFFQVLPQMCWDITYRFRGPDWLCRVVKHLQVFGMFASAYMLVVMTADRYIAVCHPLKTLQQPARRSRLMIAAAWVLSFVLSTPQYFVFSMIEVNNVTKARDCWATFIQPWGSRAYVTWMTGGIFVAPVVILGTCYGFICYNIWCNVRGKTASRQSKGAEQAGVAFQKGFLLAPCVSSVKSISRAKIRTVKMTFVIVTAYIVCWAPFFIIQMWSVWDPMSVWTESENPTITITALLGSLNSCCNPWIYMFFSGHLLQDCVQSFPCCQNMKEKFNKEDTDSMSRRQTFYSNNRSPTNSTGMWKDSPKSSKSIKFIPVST

[5] = target: Voltage-gated inwardly rectifying potassium channel KCNH2 (Homo sapiens, UniProt Q12809); assay type: functional; details: read-out: AC50
Sequence of Voltage-gated inwardly rectifying potassium channel KCNH2 (Q12809 whole entry): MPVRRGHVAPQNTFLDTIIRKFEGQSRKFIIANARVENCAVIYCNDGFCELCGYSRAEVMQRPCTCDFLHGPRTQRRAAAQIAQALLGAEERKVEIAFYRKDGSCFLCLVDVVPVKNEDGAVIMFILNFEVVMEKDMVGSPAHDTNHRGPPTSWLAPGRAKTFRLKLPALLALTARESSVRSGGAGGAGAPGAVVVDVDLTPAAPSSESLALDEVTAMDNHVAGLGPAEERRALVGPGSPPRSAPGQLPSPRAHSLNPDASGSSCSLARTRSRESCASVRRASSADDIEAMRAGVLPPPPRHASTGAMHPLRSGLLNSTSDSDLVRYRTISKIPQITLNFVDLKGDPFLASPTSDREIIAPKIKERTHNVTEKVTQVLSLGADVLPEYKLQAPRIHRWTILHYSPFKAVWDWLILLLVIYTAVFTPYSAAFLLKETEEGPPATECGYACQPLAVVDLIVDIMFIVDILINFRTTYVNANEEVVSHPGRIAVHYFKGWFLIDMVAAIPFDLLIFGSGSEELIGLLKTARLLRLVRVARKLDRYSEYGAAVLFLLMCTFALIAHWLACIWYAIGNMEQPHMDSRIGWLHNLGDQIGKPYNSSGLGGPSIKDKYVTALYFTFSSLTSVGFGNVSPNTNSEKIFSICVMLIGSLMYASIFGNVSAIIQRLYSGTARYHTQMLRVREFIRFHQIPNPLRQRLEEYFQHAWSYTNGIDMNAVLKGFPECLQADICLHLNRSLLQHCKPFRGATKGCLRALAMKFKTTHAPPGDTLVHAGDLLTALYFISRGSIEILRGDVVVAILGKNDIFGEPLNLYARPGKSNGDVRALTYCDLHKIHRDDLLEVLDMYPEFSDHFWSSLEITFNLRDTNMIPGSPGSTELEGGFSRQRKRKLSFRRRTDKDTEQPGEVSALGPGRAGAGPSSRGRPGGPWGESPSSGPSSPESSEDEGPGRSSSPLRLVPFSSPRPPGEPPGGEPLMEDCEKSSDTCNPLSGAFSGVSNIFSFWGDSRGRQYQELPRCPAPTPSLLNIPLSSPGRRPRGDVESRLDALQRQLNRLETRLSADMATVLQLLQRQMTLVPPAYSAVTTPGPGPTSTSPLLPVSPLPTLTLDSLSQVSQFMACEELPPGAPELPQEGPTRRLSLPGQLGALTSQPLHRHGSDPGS

[6] = target: T3, Muscarinic acetylcholine receptor M1 (Homo sapiens, UniProt P11229); assay type: functional
T3 sequence (P11229 whole entry): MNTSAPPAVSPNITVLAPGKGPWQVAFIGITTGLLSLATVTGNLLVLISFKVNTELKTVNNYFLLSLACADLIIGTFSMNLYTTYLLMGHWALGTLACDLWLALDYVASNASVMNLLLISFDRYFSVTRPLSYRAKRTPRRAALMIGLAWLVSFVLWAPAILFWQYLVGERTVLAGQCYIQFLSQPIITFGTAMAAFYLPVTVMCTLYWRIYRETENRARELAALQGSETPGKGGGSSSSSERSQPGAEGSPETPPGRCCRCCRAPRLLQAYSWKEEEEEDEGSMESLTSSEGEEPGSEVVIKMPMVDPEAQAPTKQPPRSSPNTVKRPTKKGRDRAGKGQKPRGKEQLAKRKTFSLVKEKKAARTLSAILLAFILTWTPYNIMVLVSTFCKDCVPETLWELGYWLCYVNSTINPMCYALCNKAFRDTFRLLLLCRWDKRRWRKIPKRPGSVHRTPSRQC

[7] = target: T4, Cholecystokinin receptor type A (Homo sapiens, UniProt P32238)
T4 sequence (P32238 whole entry): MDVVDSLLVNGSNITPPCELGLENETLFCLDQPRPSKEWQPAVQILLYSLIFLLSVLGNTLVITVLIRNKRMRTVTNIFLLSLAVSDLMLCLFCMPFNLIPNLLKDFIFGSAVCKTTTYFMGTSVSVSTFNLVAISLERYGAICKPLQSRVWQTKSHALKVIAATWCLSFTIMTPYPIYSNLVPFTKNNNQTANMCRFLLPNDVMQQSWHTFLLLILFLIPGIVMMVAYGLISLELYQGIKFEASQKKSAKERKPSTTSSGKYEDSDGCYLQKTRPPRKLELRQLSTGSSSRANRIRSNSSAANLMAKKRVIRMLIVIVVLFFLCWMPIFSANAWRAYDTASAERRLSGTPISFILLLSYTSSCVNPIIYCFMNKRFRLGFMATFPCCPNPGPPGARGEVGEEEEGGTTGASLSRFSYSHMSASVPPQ

[8] = target: T5, 5-hydroxytryptamine receptor 1A (Homo sapiens, UniProt P08908); assay type: functional, cell-based
T5 sequence (P08908 whole entry): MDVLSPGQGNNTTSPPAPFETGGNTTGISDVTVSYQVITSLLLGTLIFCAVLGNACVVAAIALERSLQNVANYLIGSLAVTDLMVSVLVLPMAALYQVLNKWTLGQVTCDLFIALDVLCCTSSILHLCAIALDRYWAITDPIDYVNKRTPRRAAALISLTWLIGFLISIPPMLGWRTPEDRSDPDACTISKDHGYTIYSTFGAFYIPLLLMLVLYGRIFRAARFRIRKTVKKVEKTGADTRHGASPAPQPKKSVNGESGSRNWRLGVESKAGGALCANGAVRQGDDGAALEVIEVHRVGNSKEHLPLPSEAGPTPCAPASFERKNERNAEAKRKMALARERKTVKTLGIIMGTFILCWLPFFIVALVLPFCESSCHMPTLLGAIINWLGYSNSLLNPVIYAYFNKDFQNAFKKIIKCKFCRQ

[9] = target: Acetylcholinesterase (Homo sapiens, UniProt P22303); assay type: functional
Sequence of Acetylcholinesterase (P22303 whole entry): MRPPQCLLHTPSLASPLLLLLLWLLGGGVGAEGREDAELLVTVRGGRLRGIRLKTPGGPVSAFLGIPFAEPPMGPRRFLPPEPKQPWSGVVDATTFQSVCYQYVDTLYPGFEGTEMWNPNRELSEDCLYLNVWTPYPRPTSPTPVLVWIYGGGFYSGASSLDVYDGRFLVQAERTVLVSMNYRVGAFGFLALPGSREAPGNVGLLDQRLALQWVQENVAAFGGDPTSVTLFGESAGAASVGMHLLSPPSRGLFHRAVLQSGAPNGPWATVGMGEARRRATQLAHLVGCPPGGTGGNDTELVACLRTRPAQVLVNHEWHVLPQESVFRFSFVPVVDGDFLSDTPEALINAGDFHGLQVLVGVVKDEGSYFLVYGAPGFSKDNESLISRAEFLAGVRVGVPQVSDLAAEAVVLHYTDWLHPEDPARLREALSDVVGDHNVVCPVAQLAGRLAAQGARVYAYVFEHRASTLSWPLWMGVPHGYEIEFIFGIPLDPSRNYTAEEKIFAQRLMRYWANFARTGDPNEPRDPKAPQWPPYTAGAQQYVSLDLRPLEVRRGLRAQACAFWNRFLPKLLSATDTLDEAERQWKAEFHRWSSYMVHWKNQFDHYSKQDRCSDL

[10] = target: Prothrombin (Homo sapiens, UniProt P00734); assay type: functional
[11] = target: T6, Neuropeptide Y receptor type 1 (Homo sapiens, UniProt P25929)
T6 sequence (P25929 whole entry): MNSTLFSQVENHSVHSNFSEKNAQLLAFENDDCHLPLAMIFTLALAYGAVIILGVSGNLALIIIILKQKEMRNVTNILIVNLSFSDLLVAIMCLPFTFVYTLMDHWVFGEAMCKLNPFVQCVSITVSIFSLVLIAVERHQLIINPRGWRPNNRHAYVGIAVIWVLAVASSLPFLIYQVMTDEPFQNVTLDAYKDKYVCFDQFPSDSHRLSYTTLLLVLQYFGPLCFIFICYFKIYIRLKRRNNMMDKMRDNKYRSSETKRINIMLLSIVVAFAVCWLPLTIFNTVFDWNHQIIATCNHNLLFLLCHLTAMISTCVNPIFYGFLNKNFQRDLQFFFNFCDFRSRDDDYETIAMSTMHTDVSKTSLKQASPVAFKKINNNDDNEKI
Note: assay procedure not described here.

SMILES | AC50 [1] [µM] | AC50 [2] [µM] | AC50 [3] [µM] | AC50 [4] [µM] | AC50 [5] [µM] | AC50 [6] [µM] | AC50 [7] [µM] | AC50 [8] [µM] | AC50 [9] [µM] | AC50 [10] [µM] | AC50 [11] [µM]
C[C@H]1CNCCc2ccc(Cl)cc21 [LORCASERIN] | > 30 | > 30 | 3.6 | > 30 | 6.5 | > 30 | > 30 | > 30 | – | – | –
C[C@]12CC[C@@H]3c4ccc(O)cc4CC[C@H]3[C@@H]1C[C@@H](O)[C@@H]2O [ESTRIOL] | – | – | – | – | > 30 | – | – | – | > 30 | > 30 | –
Cc1cn([C@H]2C[C@H](N=[N+]=[N-])[C@@H](CO)O2)c(=O)[nH]c1=O [ZIDOVUDINE] | > 30 | > 10 | > 10 | > 10 | > 30 | – | > 30 | > 10 | > 30 | > 30 | > 30
CCCCCCOc1nsnc1C1=CCCN(C)C1 [XANOMELINE] | – | – | – | – | 1.3 | – | – | – | 17.2 | > 30 | –
Cc1cn([C@H]2C=C[C@@H](CO)O2)c(=O)[nH]c1=O [STAVUDINE] | > 30 | > 10 | > 10 | > 10 | > 30 | – | > 30 | > 10 | > 30 | > 30 | > 30
Cc1cccc(Nc2ccccc2C(=O)O)c1C [MEFENAMIC ACID] | > 10 | > 10 | > 10 | > 10 | > 30 | – | > 10 | > 10 | > 30 | > 30 | > 10
CCc1oc2ccccc2c1C(=O)c1cc(I)c(O)c(I)c1 [BENZIODARONE] | – | – | – | – | – | – | – | – | > 30 | > 30 | –
CS(=O)(=O)c1ccc(C2=C(c3ccccc3)C(=O)OC2)cc1 [ROFECOXIB] | > 30 | > 10 | > 10 | > 10 | > 30 | – | > 30 | > 30 | > 30 | > 30 | > 30
C[N+]1(C)CCC(OC(=O)C(O)(c2ccccc2)C2CCCC2)C1 (stereo not drawn) [GLYCOPYRRONIUM BROMIDE] | – | – | – | > 30 | – | – | > 30 | – | – | > 30 | –
c1cnc(N2CCN(Cc3ccc4c(c3)OCO4)CC2)nc1 [PIRIBEDIL] | > 30 | > 30 | 0.96 | > 30 | 19 | > 30 | > 30 | > 30 | – | – | –
CNC(=O)c1ccccc1Sc1ccc2c(/C=C/c3ccccn3)n[nH]c2c1 [AXITINIB] | > 30 | > 30 | > 30 | > 30 | > 30 | > 30 | > 30 | > 30 | – | – | –
COCc1c(C(C)C)nc(C(C)C)c(/C=C/[C@@H](O)C[C@@H](O)CC(=O)O)c1-c1ccc(F)cc1 [CERIVASTATIN] | – | – | – | – | – | – | – | – | > 30 | > 30 | –
C[N+](C)(C)CCO [CHOLINE] | – | – | – | – | – | – | – | – | > 30 | > 30 | –
CC(C)(S)[C@@H](N)C(=O)O [PENICILLAMINE] | – | – | – | – | > 30 | – | – | – | > 30 | > 30 | –
CC[C@H]1OC(=O)[C@H](C)[C@@H](O[C@H]2C[C@@](C)(OC)[C@@H](O)[C@H](C)O2)[C@H](C)[C@@H](O[C@@H]2O[C@H](C)C[C@H](N(C)C)[C@H]2O)[C@](C)(O)C[C@@H](C)CN(C)[C@H](C)[C@@H](O)[C@]1(C)O [AZITHROMYCIN] | > 30 | > 10 | > 10 | > 10 | > 30 | – | > 30 | > 10 | > 30 | > 30 | > 30
COc1cc(NC(C)CCCN)c2ncccc2c1 (stereo not drawn) [PRIMAQUINE] | > 30 | – | – | – | 20 | – | > 30 | – | – | > 30 | > 30
CC(C)C[C@H]1C(=O)N2CCC[C@H]2[C@]2(O)O[C@](NC(=O)[C@@H]3C=C4c5cccc6[nH]c(Br)c(c56)C[C@H]4N(C)C3)(C(C)C)C(=O)N12 [BROMOCRIPTINE] | > 30 | > 30 | – | > 30 | > 30 | – | > 30 | 3.1 | 1.78 | > 30 | > 30
CCC1=C(C)CN(C(=O)NCCc2ccc(S(=O)(=O)NC(=O)N[C@H]3CC[C@H](C)CC3)cc2)C1=O [GLIMEPIRIDE] | – | – | – | – | > 30 | – | – | – | > 30 | > 30 | –
CC(=O)Nc1ccc(O)cc1 [ACETAMINOPHEN] | > 30 | > 30 | > 30 | > 30 | > 30 | – | > 30 | > 30 | > 30 | > 30 | –
NCC(CC(=O)O)c1ccc(Cl)cc1 (stereo not drawn) [BACLOFEN] | > 30 | > 30 | > 30 | > 30 | > 30 | – | > 30 | > 30 | > 30 | > 30 | > 30
CO[C@H]1C[C@@H]2CC[C@@H](C)[C@@](O)(O2)C(=O)C(=O)N2CCCC[C@H]2C(=O)O[C@H]([C@H](C)C[C@@H]2CC[C@@H](O)[C@H](OC)C2)CC(=O)[C@H](C)/C=C(\C)[C@@H](O)[C@@H](OC)C(=O)[C@H](C)C[C@H](C)/C=C/C=C/C=C/1C [SIROLIMUS] | > 30 | > 10 | > 10 | > 30 | > 30 | – | > 30 | > 10 | > 30 | > 30 | > 30
